Laboratory results as given in US10745365B2, “Luminogenic and fluorogenic compounds and methods to detect molecules or conditions” (Promega Corporation, priority 2005, dated 2020).

Legend:
Type in all cases: biochemical
[1] = test system: thermostable luciferase (Luc 146-1H2); experiment: Residual active thermostable luciferase after reaction with derivative (Steady Glo); conditions: substrate 100; +DTT; sample taken 60 min
Experimental: After assembly, the reactions were initiated by addition of 25 μl of the thermostable luciferase stock solution above and mixing the tube contents. A 50 μl sample was immediately removed and placed in a luminometer tube and the light read and the tube then replaced in a tube rack at room temperature. While the light reading was being taken, a 5 μl sample of the remaining reaction (which was kept at room temperature) was diluted into 495 μl of 50 mM BisTris, pH 6.5, 1 mg/ml BSA, 1 mM EDTA prechilled to 4° C. and the tube mixed and placed on ice. The light produced by the samples in the luminometer tubes were re-read at 20, 40, 60, 90 and 120 minutes post enzyme addition. Additional 5 μl samples were taken and diluted as above at 60 and 120 minutes post enzyme addition. Once all these readings and samples were taken, 50 μl of the diluted samples was mixed with 50 μl of Steady Glo in luminometer tubes, the tubes incubated 10 minutes […] then the light produced was read on a Turner TD 20/20 luminometer.

[2] = target: T1, QuantiLum Luciferase (firefly luciferase) (Photinus pyralis, UniProt P08659); experiment: Light emission of QuantiLum firefly luciferase with luciferin derivatives
T1 construct: purchased Promega Corporation El 70
Experimental: Gel and HPLC stop solution. Solid EDTA (free acid) was placed in a beaker with water and the pH of the solution adjusted to pH 7.0. The solution was then adjusted in volume to produce a solution 400 mM in EDTA.
Enzyme stop solution. A solution was prepared containing 20 mM Bis Tris, pH 6.5, 2 mM EDTA and 1 mg/ml bovine serum albumin.
Reaction buffer (2×). A solution was made containing 100 mM HEPES buffer, pH 8.0; 10 mM MgCl2.
DTT stock. Solid DTT (dithiothreitol) was dissolved in water and then adjusted to pH 8.0 with solid sodium hydroxide. The solution was then adjusted in volume to produce a solution 1 M in DTT.
(§1) After producing the solutions in Table 37, the volume of all reactions was adjusted to 990 μl with water. […] While the light reading was being taken, a 10 μl sample of the reaction was diluted to 500 μl with enzyme stop solution (cooled on ice to 4° C.) mixed and placed on ice and a second sample of 90 μl of reaction was added to 10 μl of Gel/HPLC stop and the tube placed at −20° C. A timer was started with the start of the first reaction and the start times of the remaining reactions was noted. At 15, 30, 45 and 60 minutes, each reaction was sampled as above and the light produced in the luminometer tubes was measured. At 7 and 22 minutes, the light produced in the luminometer tubes was read, but the reactions were not sampled.
as §1, with “40,” for “37,”, “−200” for “−20°”
The DTT, Coenzyme A, and QuantiLum stock solutions are the same as those described herein.
This solution was diluted 1:1 with water to produce an enzyme solution labeled “No addition.” This solution was diluted 1:1 with 400 mM DTT, pH 8.0 to produce a solution labeled+DTT. This solution was diluted 1: 1 with 4 mM Coenzyme A to produce a solution labeled+Co A. Finally, this solution was diluted 1: 1 with a solution having both 4 mM Coenzyme A and 400 mM DTT to produce a solution labeled+Co A & DTT.
50 μl samples of these solutions were placed in the wells of luminometer microtiter plates, row A to row G, respectively. Row H of the plates was given 50 μl of water.
Reactions in these plates were initiated by addition of 50 μl of solution containing QuantiLum luciferase using a 12 channel micropipette. The solutions added to the rows were: columns 1, 5, and 9—no addition solution; columns 2, 6, and 10—+Co A solution; columns 3, 7, and 11—+DTT solution, and; columns 4, 8, and 12—+Co A and DTT solution. After addition of the enzyme solution to the first row on every plate, a timer was started. After addition of the enzyme solution to the last row on each plate, the plate was sealed and read on a Veritas luminometer.

[3] = target: T1, QuantiLum Luciferase (firefly luciferase); experiment: Residual active QuantiLum luciferase after reaction with derivative (Steady Glo)
Experimental: as §1
After all samples were taken, 50 μl of the sample diluted into enzyme stop solution was mixed with 50 μl of Steady Glo Luciferase Reagent (Promega) and the light produced measured after incubating at room temperature for 10 minutes. This measured the active luciferase in the initial reaction.
as §1, with “40,” for “37,”, “−200” for “−20°”

T1 sequence (P08659 whole entry): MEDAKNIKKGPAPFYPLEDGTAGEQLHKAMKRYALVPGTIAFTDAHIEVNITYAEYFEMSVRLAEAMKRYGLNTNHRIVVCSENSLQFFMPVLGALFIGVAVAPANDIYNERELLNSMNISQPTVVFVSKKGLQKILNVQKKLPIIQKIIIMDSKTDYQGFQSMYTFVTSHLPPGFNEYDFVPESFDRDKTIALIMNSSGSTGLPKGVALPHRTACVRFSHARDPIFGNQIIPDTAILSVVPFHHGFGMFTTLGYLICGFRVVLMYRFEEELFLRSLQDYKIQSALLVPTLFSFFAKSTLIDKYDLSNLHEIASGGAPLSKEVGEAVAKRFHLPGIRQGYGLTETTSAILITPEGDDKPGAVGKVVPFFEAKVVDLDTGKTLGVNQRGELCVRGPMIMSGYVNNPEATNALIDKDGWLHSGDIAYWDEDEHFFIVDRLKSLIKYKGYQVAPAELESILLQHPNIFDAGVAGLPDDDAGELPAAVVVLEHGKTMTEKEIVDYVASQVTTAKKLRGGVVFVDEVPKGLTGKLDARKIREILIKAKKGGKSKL

Structure (SMILES): O=C(O)[C@H]1CSC(c2nc3ccc(OCc4ccccc4)cc3s2)=N1 [L'in-BE]
- light value of diluted reaction sample in Steady Glo [1]: 962.1

Structure (SMILES): O=C(O)[C@H]1CSC(c2nc3ccc(OCc4ccccc4)cc3s2)=N1 [Luc’in BE]
- Light reading at time 0 min ([2]; +Co A): 139.5
- Light reading at time 7 min ([2]; +Co A): 11.92
- Light reading at time 15 min ([2]; +Co A): 10.99
- Light reading at time 22 min ([2]; +Co A): 9.941
- Light reading at time 30 min ([2]; +Co A): 7.379
- Light reading at time 45 min ([2]; +Co A): 7.284
- Light reading at time 60 min ([2]; +Co A): 6.433
- Light reading at time 0 min ([2]; +DTT): 948
- Light reading at time 7 min ([2]; +DTT): 532.8
- Light reading at time 15 min ([2]; +DTT): 417
- Light reading at time 22 min ([2]; +DTT): 369.5
- Light reading at time 30 min ([2]; +DTT): 331.6
- Light reading at time 45 min ([2]; +DTT): 273.5
- Light reading at time 60 min ([2]; +DTT): 226.9
- Light reading at time 0 min ([2]; +EDTA): 1.004
- Light reading at time 7 min ([2]; +EDTA): 0.771
- Light reading at time 15 min ([2]; +EDTA): 0.639
- Light reading at time 22 min ([2]; +EDTA): 0.562
- Light reading at time 30 min ([2]; +EDTA): 0.461
- Light reading at time 45 min ([2]; +EDTA): 0.425
- Light reading at time 60 min ([2]; +EDTA): 0.354
- Light reading at time 0 min ([2]; No addition): 135.2
- Light reading at time 7 min ([2]; No addition): 22.61
- Light reading at time 15 min ([2]; No addition): 12.79
- Light reading at time 22 min ([2]; No addition): 9.256
- Light reading at time 30 min ([2]; No addition): 6.928
- Light reading at time 45 min ([2]; No addition): 4.879
- Light reading at time 60 min ([2]; No addition): 3.311
- Light reading at time 0 min ([2]; w/o ATP): 0.015
- Light reading at time 7 min ([2]; w/o ATP): 0
- Light reading at time 15 min ([2]; w/o ATP): 0.008
- Light reading at time 22 min ([2]; w/o ATP): 0.005
- Light reading at time 30 min ([2]; w/o ATP): 0
- Light reading at time 45 min ([2]; w/o ATP): 0
- Light reading at time 60 min ([2]; w/o ATP): 0.01
- Light reading from residual active enzyme at time 0 min ([3]; +Co A): 186.7
- Light reading from residual active enzyme at time 15 min ([3]; +Co A): 179.6
- Light reading from residual active enzyme at time 30 min ([3]; +Co A): 179.4
- Light reading from residual active enzyme at time 45 min ([3]; +Co A): 157.9
- Light reading from residual active enzyme at time 60 min ([3]; +Co A): 161.8
- Light reading from residual active enzyme at time 0 min ([3]; +DTT): 194
- Light reading from residual active enzyme at time 15 min ([3]; +DTT): 233.7
- Light reading from residual active enzyme at time 30 min ([3]; +DTT): 224.7
- Light reading from residual active enzyme at time 45 min ([3]; +DTT): 219.5
- Light reading from residual active enzyme at time 60 min ([3]; +DTT): 226.4
- Light reading from residual active enzyme at time 0 min ([3]; +EDTA): 170
- Light reading from residual active enzyme at time 15 min ([3]; +EDTA): 142.7
- Light reading from residual active enzyme at time 30 min ([3]; +EDTA): 140.4
- Light reading from residual active enzyme at time 45 min ([3]; +EDTA): 141.7
- Light reading from residual active enzyme at time 60 min ([3]; +EDTA): 135.4
- Light reading from residual active enzyme at time 0 min ([3]; No addition): 129.7
- Light reading from residual active enzyme at time 15 min ([3]; No addition): 69.9
- Light reading from residual active enzyme at time 30 min ([3]; No addition): 47.31
- Light reading from residual active enzyme at time 45 min ([3]; No addition): 37.94
- Light reading from residual active enzyme at time 60 min ([3]; No addition): 29.08
- Light reading from residual active enzyme at time 0 min ([3]; w/o ATP): 168.3
- Light reading from residual active enzyme at time 15 min ([3]; w/o ATP): 174.1
- Light reading from residual active enzyme at time 30 min ([3]; w/o ATP): 171.7
- Light reading from residual active enzyme at time 45 min ([3]; w/o ATP): 172.9
- Light reading from residual active enzyme at time 60 min ([3]; w/o ATP): 164

Structure (SMILES): COc1ccc2nc(C3=NC(C(=O)O)CS3)sc2c1 (stereo not shown) [Luc’in ME]
- Light reading at time 0 min ([2]; +Co A): 18.31
- Light reading at time 7 min ([2]; +Co A): 2.276
- Light reading at time 15 min ([2]; +Co A): 1.239
- Light reading at time 22 min ([2]; +Co A): 1.178
- Light reading at time 30 min ([2]; +Co A): 1.145
- Light reading at time 45 min ([2]; +Co A): 0.916
- Light reading at time 60 min ([2]; +Co A): 0.714
- Light reading at time 0 min ([2]; +DTT): 38.69
- Light reading at time 7 min ([2]; +DTT): 6.42
- Light reading at time 15 min ([2]; +DTT): 4.073
- Light reading at time 22 min ([2]; +DTT): 3.31
- Light reading at time 30 min ([2]; +DTT): 2.708
- Light reading at time 45 min ([2]; +DTT): 2.202
- Light reading at time 60 min ([2]; +DTT): 1.996
- Light reading at time 0 min ([2]; +EDTA): 1.067
- Light reading at time 7 min ([2]; +EDTA): 0.117
- Light reading at time 15 min ([2]; +EDTA): 0.058
- Light reading at time 22 min ([2]; +EDTA): 0.042
- Light reading at time 30 min ([2]; +EDTA): 0.024
- Light reading at time 45 min ([2]; +EDTA): 0.046
- Light reading at time 60 min ([2]; +EDTA): 0.012
- Light reading at time 0 min ([2]; No addition): 23.46
- Light reading at time 7 min ([2]; No addition): 3.144
- Light reading at time 15 min ([2]; No addition): 1.767
- Light reading at time 22 min ([2]; No addition): 1.317
- Light reading at time 30 min ([2]; No addition): 1.22
- Light reading at time 45 min ([2]; No addition): 0.982
- Light reading at time 60 min ([2]; No addition): 0.851
- Light reading at time 0 min ([2]; w/o ATP): 0
- Light reading at time 7 min ([2]; w/o ATP): 0.017
- Light reading at time 15 min ([2]; w/o ATP): 0.016
- Light reading at time 22 min ([2]; w/o ATP): 0
- Light reading at time 30 min ([2]; w/o ATP): 0
- Light reading at time 45 min ([2]; w/o ATP): 0.017
- Light reading at time 60 min ([2]; w/o ATP): 0.011
- Light reading from residual active enzyme at time 0 min ([3]; +Co A): 163.3
- Light reading from residual active enzyme at time 15 min ([3]; +Co A): 161.8
- Light reading from residual active enzyme at time 30 min ([3]; +Co A): 147.7
- Light reading from residual active enzyme at time 45 min ([3]; +Co A): 144.7
- Light reading from residual active enzyme at time 60 min ([3]; +Co A): 145.6
- Light reading from residual active enzyme at time 0 min ([3]; +DTT): 170
- Light reading from residual active enzyme at time 15 min ([3]; +DTT): 172.3
- Light reading from residual active enzyme at time 30 min ([3]; +DTT): 164.3
- Light reading from residual active enzyme at time 45 min ([3]; +DTT): 161.6
- Light reading from residual active enzyme at time 60 min ([3]; +DTT): 167.6
- Light reading from residual active enzyme at time 0 min ([3]; +EDTA): 150.5
- Light reading from residual active enzyme at time 15 min ([3]; +EDTA): 150
- Light reading from residual active enzyme at time 30 min ([3]; +EDTA): 152.1
- Light reading from residual active enzyme at time 45 min ([3]; +EDTA): 152.8
- Light reading from residual active enzyme at time 60 min ([3]; +EDTA): 151
- Light reading from residual active enzyme at time 0 min ([3]; No addition): 141.7
- Light reading from residual active enzyme at time 15 min ([3]; No addition): 35.4
- Light reading from residual active enzyme at time 30 min ([3]; No addition): 91.82
- Light reading from residual active enzyme at time 45 min ([3]; No addition): 85.72
- Light reading from residual active enzyme at time 60 min ([3]; No addition): 81.76
- Light reading from residual active enzyme at time 0 min ([3]; w/o ATP): 170
- Light reading from residual active enzyme at time 15 min ([3]; w/o ATP): 168.9
- Light reading from residual active enzyme at time 30 min ([3]; w/o ATP): 175.6
- Light reading from residual active enzyme at time 45 min ([3]; w/o ATP): 181.9
- Light reading from residual active enzyme at time 60 min ([3]; w/o ATP): 173.6
